Test results reported in patent US7125889B2, “Treating of cardiovascular and related pathologies” (Medicure International Inc., priority 1999, dated 2006).
Values joined by “and” are separate entries in the source; they are usually repeats but may differ in a detail not shown here. Equal entries are not always repeated.

How the values were obtained:
[1] = system: isolated rat hearts; test: Ischemia reperfusion in isolated rat hearts (Langendorff), left ventricular pressures; conditions: for % recovery (LVDP) / LVEDP / LVSP: 30 min ischemia, 60 min reperfusion; for % recovery (LVDP) / LVEDP / LVSP / LVDP (A) / LVDP (B): P-5-P 15 μM; for LVDP (A): after ischemia (30 min ischemia, 60 min reperfusion); for LVDP (B): before ischemia
Experimental: Male Sprague-Dawley rats weighing 250–300 g are anaesthetized with a mixture of ketamine (60 mg/kg) and xylazine (10 mg/kg).
The left ventricular end diastolic pressure (LVEDP) is adjusted at 10 mmHg at the beginning of the experiment. […] All hearts are stabilized for a period of 30 mm and then randomly distributed into nine different experimental groups (n=5–8 per group). The experimental groups are defined as follows: • 1) Control group (control hearts are further perfused for 90 minutes for a total of […] of continuous perfusion); • 2) Ischemia reperfusion group (Ischemia reperfusion hearts are made globally ischemic by stopping the coronary flow completely for 30 mm and then the hearts are reperfused for 60 mm); • 3) P-5-P (15 μM) treated group; • 4) captopril (100 μM) treated group; • 5) verapamil (0.01 μM)) treated group; […]) treated group; […]) treated group; • 8) P-5-P+captopril treated group; • 9) P-5-P+verapamil treated group; • 10) P-5-P+propranolol treated group; • 11) P-5-P+PPADS treated group.
Drug treatment is started 10 min before global ischemia followed by 30 min global ischemia and 60 min reperfusion. At the end of some experiments, the hearts are quickly freeze-clamped with a liquid nitrogen precooled Wollenberger tong. Rats are housed in clear cages in a temperature and humidity controlled room on a 12 hr light-dark cycle. Food and water are supplied ad libitum.

[2] = system: rat model of coronary ligation; test: Coronary artery ligation (myocardial infarction), mortality; assay type: in vivo; conditions: 21 days after coronary occlusion; once daily by gastric tube: P-5-P 10 mg/kg, captopril 100 mg/kg, propranolol 50 mg/kg, verapamil 25 mg/kg, aspirin 100 mg/kg; untreated 35%
Excerpt: The animals were anesthetized with ether, the skin incised along the left sternal border, the fourth rib cut proximal to the sternum, and retractors inserted. The pericardial sac was perforated and the heart was exteriorized through the intercostal space. The left coronary artery was ligated about 2 mm from its origin with a 6–0 silk suture and the heart was repositioned in the chest.
Rats are anesthetized with 1–5% isoflurane in 100% O2 (2 L flow rate). The skin is incised along the left sterna border and the 4th rib is cut proximal to the sternum and a retractor inserted. The pericardial sac is opened and the heart externalized. The left anterior descending coronary artery is ligated approximately 2 mm from its origin on the aorta using a 6–0 silk suture. The heart is then repositioned in the chest and the incision closed via purse-string sutures.
Sham operated rats undergo identical treatment except that the artery is not ligated. […] Unless indicated in the text, the experimental animals showing infarct size >30% of the left ventricle are used in this study. All animals are allowed to recover, allowed to receive food and water ad libitum, and are maintained for a period of 21 days for Electrocardiogram (ECG), hemodynamic, and histological assessment.
While the complete healing of the scar occurs within 3 weeks of the coronary occlusion, mild, moderate and severe stages of congestive heart failure have been reported to occur at 4, 8 and 16 weeks after ligation.
The rats are housed in clear cages in a temperature and humidity controlled room, on a 12 hour light-dark cycle. Food and water are supplied ad libitum. After surgery, rats are randomly assigned to treatment or non-treatment in both sham and experimental groups. Randomization of animals was performed and treatment begins 1 hour after coronary occlusion and continues for 21 days. The total duration of experiments in each case is 21 days. The groups are as follows: • 1) sham operated; • 2) coronary artery ligated (treatment with equal volumes of saline); • 3) coronary artery ligated (treated with 10 mg/kg P-5-P ); • 4) coronary artery ligated (treated with 100 mg/kg captopril); • 5) coronary artery ligated (treated with 50 mg/kg propranolol); • 6) coronary artery ligated (treated with 100 mg/kg aspirin); • 7) coronary artery ligated (treated with 25 mg/kg verapamil); • 8) coronary artery ligated (treated with 10 mg/kg P-5-P+100 mg/kg captopril); • 9) coronary artery ligated (treated with 10 mg/kg P-5-P+50 mg/kg propranolol); • 10) coronary artery ligated (treated with 10 mg/kg P-5-P+100 mg/kg aspirin); • 11) coronary artery ligated (treated with 10 mg/kg P-5-P+25 mg/kg verapamil). […]

[3] = system: rat model of coronary ligation; test: Hemodynamic changes, heart and scar weight after coronary artery ligation; assay type: in vivo; conditions: 21 days after coronary occlusion
Experimental: The rats are housed in clear cages in a temperature and humidity controlled room, on a 12 hour light-dark cycle. Food and water are supplied ad libitum. After surgery, rats are randomly assigned to treatment or non-treatment in both sham and experimental groups. Randomization of animals was performed and treatment begins 1 hour after coronary occlusion and continues for 21 days. The total duration of experiments in each case is 21 days. The groups are as follows: • 1) sham operated; • 2) coronary artery ligated (treatment with equal volumes of saline); • 3) coronary artery ligated (treated with 10 mg/kg P-5-P ); • 4) coronary artery ligated (treated with 100 mg/kg captopril); • 5) coronary artery ligated (treated with 50 mg/kg propranolol); • 6) coronary artery ligated (treated with 100 mg/kg aspirin); • 7) coronary artery ligated (treated with 25 mg/kg verapamil); • 8) coronary artery ligated (treated with 10 mg/kg P-5-P+100 mg/kg captopril); • 9) coronary artery ligated (treated with 10 mg/kg P-5-P+50 mg/kg propranolol); • 10) coronary artery ligated (treated with 10 mg/kg P-5-P+100 mg/kg aspirin); • 11) coronary artery ligated (treated with 10 mg/kg P-5-P+25 mg/kg verapamil).
P-5-P (10 mg/kg), captopril (100 mg/kg), propranolol (50 mg/kg), verapamil (25 mg/kg) and aspirin (100 mg/kg) were administered once daily by gastric tube.
The animals are prepared and grouped as described in Example 10 and were anesthetized with a solution of ketamine/xylazine which was injected. To maintain adequate ventilation, the trachea was intubated; the right carotid artery was exposed for introducing a microtip pressure transducer (model SPR-249, Millar, Houston, Tex.) into the left ventricle. The catheter was secured with a silk ligature around the artery, and various hemodynamic parameters such as left ventricular systolic pressure (LVSP), left ventricular end diastolic pressure (LVEDP), rate of contraction (+dp/dt), rate of relaxation (−dP/dt) were recorded and calculated on a computer system using a Acknowledge 3.1 software.
Once the hemodynamic parameters were measured the animals were sacrificed and hearts removed for measurement of heart weight, right ventricular weight, left ventricular weight and scar weight. Because complete healing of the scar in rats after coronary occlusion requires approximately 3 weeks, scar weight were measured only at 21 days.

[4] = system: 10% sucrose induced hypertension in rats; test: 10% sucrose induced hypertension, systolic blood pressure (tail cuff); assay type: in vivo, rat
Excerpt: Zein et al., in their publication entitled Sugar-Induced Blood Pressure Elevations Over the Lifespan of Three Substrains of Wistar Rats in Am. Coll. […] Hulman et al. in their publication entitled The Effect of Excess Dietary Sucrose on Growth, Blood Pressure, and Metabolism in Developing Sprague-Dawley Rats in Pediatr. […] Reaven et al., in their publication entitled Sugar-Induced Hypertension in Sprague-Dawley Rats in Am.
The blood pressure is monitored using the tail cuff method. The SBP is detected on an amplifier and the Acknowledge™ computer software program is used to determine the calculations.
The effect of concurrent administration of pyridoxal-5′-phosphate and captopril or verapamil on systolic blood pressure (marker of hypertension) in 10% sucrose induced hypertension in rats is determined.

SMILES | % recovery (LVDP) ([1]; Captopril 100 μM) [%] | LVEDP ([1]; Captopril 100 μM) [mmHg] | LVSP ([1]; Captopril 100 μM) [mmHg] | LVDP (A) ([1]; Captopril 100 μM) | LVDP (B) ([1]; Captopril 100 μM) | mortality rate [2] | % recovery (LVDP) ([1]; PPADS 100 μM) | LVEDP ([1]; PPADS 100 μM) [mmHg] | LVSP ([1]; PPADS 100 μM) [mmHg] | % recovery (LVDP) ([1]; Propranolol 3 μM) [%] | LVEDP ([1]; Propranolol 3 μM) [mmHg] | LVSP ([1]; Propranolol 3 μM) [mmHg] | % recovery (LVDP) ([1]; Verapamil 0.01 μM) [%] | LVEDP ([1]; Verapamil 0.01 μM) [mmHg] | LVSP ([1]; Verapamil 0.01 μM) [mmHg] | LVDP (A) ([1]; PPADS 100 μM) | LVDP (A) ([1]; Propranolol 3 μM) | LVDP (A) ([1]; Verapamil 0.01 μM) | LVDP (B) ([1]; PPADS 100 μM) | LVDP (B) ([1]; Propranolol 3 μM) | further results
C[C@H](CS)C(=O)N1CCC[C@H]1C(=O)O [Captopril, captopril, reference compound] | 61.4 ± 5.2 | 54 ± 6.7 | 101 ± 14.6 | 47 ± 8.6 | 78 ± 10.9 | 15% | – | – | – | – | – | – | – | – | – | – | – | – | – | – | % recovery (LVDP) ([1]; Captopril 100 μM, listed as captopril): 61.4%
Cc1ncc(COP(=O)(O)O)c(C=O)c1O [Example P5P, pyridoxal-5′-phosphate] | 78.2 ± 3.3 | 35 ± 4.8 | 98 ± 8.2 | 63 ± 5 | 80 ± 3.8 | 15% and 10% | 78.2 ± 3.3% | 35 ± 4.8 | 98 ± 8.2 | 78.2 ± 3.3 | 35 ± 4.8 | 98 ± 8.2 | 78.2 ± 3.3 | 35 ± 4.8 | 98 ± 8.2 | 63 ± 5 | 63 ± 5 | 63 ± 5 | 80 ± 3.8 | 80 ± 3.8 | % recovery (LVDP) ([1]; Captopril 100 μM, listed as P-5-P): 78.2%; % recovery (LVDP) ([1]; PPADS 100 μM, listed as P-5-P): 78.2%; % recovery (LVDP) ([1]; Propranolol 3 μM, listed as P-5-P): 78.2%; % recovery (LVDP) ([1]; Verapamil 0.01 μM, listed as P-5-P): 78.2%; LVDP (B) ([1]; Verapamil 0.01 μM): 80 ± 3.8; benefit in ischemia reperfusion injury ([1]; given alone, summary of Tables I-IV): significant benefit; effect on scar weight ([3]; FIGS. 5-8): significant beneficial effect; effect on rate of contraction (+dP/dt) ([3]; FIGS. 9-12): significant beneficial effect; effect on left ventricular end diastolic pressure (LVEDP) ([3]; FIGS. 17-20): significant beneficial effect; effect on whole heart weight ([3]; FIGS. 21-24): significant beneficial effect; effect on right ventricular weight ([3]; FIGS. 25-28): significant beneficial effect; effect on systolic blood pressure ([4]; treatment 1 week prior to inducing hypertension with a sucrose diet, FIGS. 29A, 29B): significant beneficial effect; effect on systolic blood pressure ([4]; treatment the same day as inducing hypertension with a sucrose diet, FIGS. 30A, 30B): significant beneficial effect; effect on systolic blood pressure ([4]; treatment two weeks after inducing hypertension with a sucrose diet, FIGS. 31A, 31B): significant beneficial effect
Cc1nc(N=Nc2ccc(S(=O)(=O)O)cc2S(=O)(=O)O)c(COP(=O)(O)O)c(C=O)c1O [PPADS, pyridoxal phosphate-6-azophenyl-2′,4′-disulphonic acid, reference compound] | – | – | – | – | – | – | 61% and 61 ± 4.8 % | 57 ± 6.3 | 115 ± 11.5 | – | – | – | – | – | – | 58 ± 13.6 | – | – | 92 ± 15.2 | – | –
CC(C)NCC(O)COc1cccc2ccccc12 (stereo not drawn) [Propranolol, propranolol, reference compound] | – | – | – | – | – | – | – | – | – | 74 ± 4.9 | 27 ± 6.6 | 72 ± 15.1 | – | – | – | – | 45 ± 9.7 | – | – | 61 ± 10.8 | % recovery (LVDP) ([1]; Propranolol 3 μM, listed as propranolol): 74%
COc1ccc(CCN(C)CCCC(C#N)(c2ccc(OC)c(OC)c2)C(C)C)cc1OC (stereo not drawn) [Verapamil, verapamil, reference compound] | – | – | – | – | – | 25% | – | – | – | – | – | – | 43 ± 6.6 | 55 ± 5.1 | 78 ± 7.7 | – | – | 23 ± 4.5 | – | – | % recovery (LVDP) ([1]; Verapamil 0.01 μM, listed as verapamil): 43%; LVDP (B) ([1]; Verapamil 0.01 μM): 54 ± 9.1
CC(=O)Oc1ccccc1C(=O)O [aspirin] | – | – | – | – | – | 25% | – | – | – | – | – | – | – | – | – | – | – | – | – | – | –
